These results are taken from PubChem BioAssay (NCI).

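48-hour exposure; five concentrations; linearly interpolated endpoints. GI50 = concentration required for 50% inhibition of growth. At the TGI there is no net growth.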

Test systems include SF-268 CNS; HCT-116 colon; A549 NSCLC; HS 578T breast; PC-3 prostate; MCF7 breast; SK-OV-3 ovarian; HT29 colon; IGROV1 ovarian; NCI/ADR-RES ovarian.
Holding throughout (test): growth of human tumour cells (NCI), 48 h

With `O=C1CC(c2cccc(F)c2)Nc2cc3c(cc21)OCO3` (stereo not given), the GI50 with SF-268 CNS was 1.53 µM; in the test on HCT-116 colon, under 0.01 µM; in the test with A549 NSCLC, under 0.01 µM; in the test with PC-3 prostate it was under 0.01 µM; in the test on MCF7 breast it was under 0.01 µM; in the test with SK-OV-3 ovarian, 0.0111 µM. The TGI with SF-268 CNS, in the test with HCT-116 colon, with A549 NSCLC, in the test with HS 578T breast, with PC-3 prostate and in the test on MCF7 breast was over 100 µM in each case. Besides, the figures for the TGI in the test with SK-OV-3 ovarian and in the test with HT29 colon were over 100 µM and 0.0667 µM, respectively.

In the case of `COc1ccc(C/C(=C(\C)c2ccc(OCCN3CCCC3)cc2)c2ccc(OCCN3CCCC3)cc2)cc1`, the GI50 with SF-268 CNS was 1.97 µM; with A549 NSCLC, 1.82 µM; with HS 578T breast it was 2.17 µM; in the test on IGROV1 ovarian, 1.87 µM; in the test on PC-3 prostate it was 1.75 µM; in the test with MCF7 breast, 1.6 µM. In addition, the GI50 is 1.86 µM in the test on SK-OV-3 ovarian, 1.58 µM in the test with HT29 colon and 1.96 µM in the test on NCI/ADR-RES ovarian. Also, the TGI in the test on SF-268 CNS was 4.19 µM; in the test on A549 NSCLC, 3.84 µM; in the test on HS 578T breast, 4.83 µM; in the test on IGROV1 ovarian it was 3.97 µM; in the test on PC-3 prostate, 4.07 µM; with MCF7 breast, 3.1 µM. Besides, the results for the TGI with SK-OV-3 ovarian, in the test on HT29 colon and in the test with NCI/ADR-RES ovarian were 3.68 µM, 3.07 µM and 3.71 µM, respectively.

On to `O=S(=O)(O)c1cc(O)c(N=Nc2ccc(O)cc2O)c2ccccc12`, for which the TGI in the test with SF-268 CNS, with HCT-116 colon, in the test on A549 NSCLC, in the test with HS 578T breast, in the test on IGROV1 ovarian and in the test with PC-3 prostate was over 100 µM throughout. For the same molecule, the TGI with SK-OV-3 ovarian, in the test with HT29 colon and in the test on NCI/ADR-RES ovarian was over 100 µM throughout.

Regarding `COC12C=C/C(=C(/C(=O)OCc3ccccn3)C(=O)CCCCCCCCC3(OC)C=C/C(=C(/C(=O)OCc4ccccn4)C(=O)CCCCCCCC1)O3)O2`, the GI50 in the test with SF-268 CNS is 1.12 µM; in the test on HCT-116 colon, 0.223 µM; in the test on A549 NSCLC, 0.626 µM; with HS 578T breast, 0.783 µM; in the test on IGROV1 ovarian, 0.421 µM; in the test on PC-3 prostate, 0.719 µM. Further, the GI50 in the test with SK-OV-3 ovarian is 0.889 µM; with HT29 colon, 0.423 µM. Further, the TGI is 4.81 µM in the test on SF-268 CNS; 0.47 µM in the test with HCT-116 colon; 3.49 µM with A549 NSCLC; over 100 µM in the test with HS 578T breast; 3.73 µM in the test on IGROV1 ovarian; 3.98 µM in the test on PC-3 prostate. For the same molecule, the TGI is 60.9 µM in the test on SK-OV-3 ovarian and 2.89 µM with HT29 colon.

Turning to `CC1=C(c2ccccc2)C(O)(c2ccccc2)C(C)C1=O` (stereo not given), the GI50 in the test with SF-268 CNS is 27.4 µM; in the test on HCT-116 colon, 9.95 µM; in the test with A549 NSCLC, 32.5 µM; with IGROV1 ovarian, 10.3 µM; in the test on PC-3 prostate it was 22.8 µM; with MCF7 breast it was 13 µM. For the same molecule, the GI50 in the test with SK-OV-3 ovarian was 20 µM; with HT29 colon, 10.5 µM; with NCI/ADR-RES ovarian, 2.95 µM. In addition, the TGI with SF-268 CNS, in the test on HCT-116 colon, in the test with A549 NSCLC, in the test with IGROV1 ovarian, in the test with PC-3 prostate and in the test on MCF7 breast was over 100 µM each time. In addition, the TGI in the test with SK-OV-3 ovarian was over 100 µM; in the test with HT29 colon, over 100 µM; in the test on NCI/ADR-RES ovarian, 9.94 µM.

As for `CN(C)c1ccc2oc(=O)c3ccccc3c2c1`, the TGI with SF-268 CNS was over 100 µM; in the test with HCT-116 colon, over 100 µM; with A549 NSCLC it was over 100 µM; in the test on HS 578T breast it was 92 µM; in the test on IGROV1 ovarian, over 100 µM; in the test with PC-3 prostate, over 100 µM. For the same molecule, the TGI in the test on HT29 colon was over 100 µM.

`Cc1csc2[n+]1-c1ccccc1N(C(=O)Nc1ccccc1)C(C)C2` (stereo not given): the GI50 was over 100 µM in the test with SF-268 CNS; 16.5 µM with HCT-116 colon; 36.6 µM with A549 NSCLC; over 100 µM with HS 578T breast; 80.7 µM in the test with IGROV1 ovarian; 59.1 µM with PC-3 prostate. The figures for the GI50 in the test on MCF7 breast, in the test with HT29 colon and in the test on NCI/ADR-RES ovarian were 48.7 µM, 36.6 µM and 25.1 µM, respectively. Moreover, the TGI in the test on SF-268 CNS is over 100 µM; in the test on HCT-116 colon, 31.5 µM; in the test with A549 NSCLC it was over 100 µM; in the test on HS 578T breast, over 100 µM; in the test with IGROV1 ovarian it was over 100 µM; in the test on PC-3 prostate it was over 100 µM. The TGI in the test with MCF7 breast is over 100 µM; in the test on HT29 colon, over 100 µM; in the test on NCI/ADR-RES ovarian, 88.4 µM.

`CCCCCCCCCCCCCC[N+](C)(C)CCCCCCCCCCCCCC`: the GI50 was 2.92 µM with SF-268 CNS; 5.65 µM with HS 578T breast; 1.85 µM in the test on PC-3 prostate; 3.6 µM in the test on SK-OV-3 ovarian; 7.42 µM with NCI/ADR-RES ovarian. Also, the TGI in the test on SF-268 CNS worked out at 8.38 µM; with HS 578T breast, 24.8 µM; with PC-3 prostate, 4.45 µM; in the test with SK-OV-3 ovarian it was 19.7 µM; with NCI/ADR-RES ovarian, 63.4 µM.
